Values joined by “and” are separate entries in the source; they are usually repeats but may differ in a detail not shown here. Equal values may be shown once.
Assays:
M. incognita = assay: Meloidogyne spp. (Root-knot nematode) contact activity, preventive, drench test (Biological Screen Nem 2); assay type: in vivo; details: cucumber cv. Toshka in pots, WP10 suspension at 20 ppm, 3000 eggs of M. incognita, harvested after fourteen days, Zeck's gall index, cis vs trans isomers
Description: Meloidogyne spp. (Root-knot nematode) contact activity, preventive, drench test. Cucumber cv. Toshka seeds were shown directly into pots filled with a sandy substrate. Six days later pots were each treated with 5 ml of a WP10 suspension of the test compound at 20 ppm. Hereafter pots were inoculated with 3000 eggs of M. incognita. The trial was harvested fourteen days after trial application and inoculation. Root galling was assessed according to Zeck's gall index (Zeck, 1971). Biological Screen Nem 2. Meloidogyne spp. (Root-knot nematode) contact activity, preventive, drench test. Values are given in % galling.

[1] = test system: Meloidogyne spp. (Root-knot nematode); assay: Meloidogyne spp. (Root-knot nematode) contact activity, preventive, pouch test (Biological Screen Nem 1); assay type: in vivo; details: cucumber cv. Toshka, test solutions at 200 ppm, 3000 eggs, assessed after twelve days, cis vs trans isomers
Description: Meloidogyne spp. (Root-knot nematode) contact activity, preventive. Pouch test. Filter papers (9 cm×4.5 cm) with a small pocket were placed into plastic pouches (12 cm×6 cm). One cucumber cv. Toshka seed was placed in the centre of the filter paper pocket of all the pouches needed for a test. The cucumber seeds in the pouches were treated with test solutions at 200 ppm by pipetting the solution directly over the cucumber seed in the filter paper pocket in the pouch. Prior to application, the compound solution was prepared at twice the concentration required and the egg suspension is prepared with FORL nutrient solution with 3000 eggs/0.5 ml. After applying all the treatments, 3000 eggs (in 0.5 ml of FORL nutrient solution) were pipetted into the pouches. The pouches were incubated in a moist chamber for twelve days and watered regularly to maintain good filter paper moisture essential for the growing cucumber root system. After this period, the filter paper containing the germinated cucumber seedling was removed from the plastic pouch to assess the number of galls caused by Meloidogyne spp. per root system. Biological Screen Nem 1. Meloidogyne spp. (Root-knot nematode) contact activity, preventive. Pouch test. Values are given in % galling.

Row | Compound | melting point | Nem 2 (% galling) (M. incognita) [%] | Nem 1 (% galling) [1] [%]
1 | C[C@H]1C(NC(=O)c2c(F)cccc2F)[C@H]1c1ccc(F)cc1 (mixture of isomers) [Compound 68.003, 2,6-difluoro-N-[(1R,2R,3R)-2-(4-fluorophenyl)-3-methyl-cyclopropyl]benzamide] | 90 to 96 °C |  | 
2 | Cn1cc(C(=O)N[C@@H]2C[C@@H]2c2ccc(F)cc2)c(C(F)F)n1 (relative stereo) [Compound 67.002, 3-difluoromethyl-1-methyl-1H-pyrazole-4-carboxylic acid [(cis)-2-(4-fluoro-phenyl)-cyclopropyl]-amide] | 141 to 143 °C |  | 
3 | O=C(N[C@@H]1C[C@@H]1c1ccc(Cl)cc1Cl)c1ccccc1C(F)(F)F (racemic) [Compound 67-014] |  | 98 | 100
4 | C[C@]1(c2ccc(Cl)cc2)CC1NC(=O)c1c(F)cccc1F (mixture of isomers) [Compound 68.009, N-[(1R,2R)-2-(4-chlorophenyl)-2-methyl-cyclopropyl]-2,6-difluoro-benzamide] | 140 to 142 °C |  | 
5 | O=C(N[C@@H]1C[C@@H]1c1ccc(C(F)(F)F)cc1)c1ccccc1C(F)(F)F (racemic) [Compound 67-026] |  | 82 | 64
6 | O=C(N[C@@H]1C[C@@H]1c1ccc(OC(F)F)cc1)c1ccccc1C(F)(F)F (relative stereo) [Compound 67-011, N-[cis-2-(4-difluoromethoxy-phenyl)-cyclopropyl]-2-trifluoromethyl-benzamide] | 133 to 136 °C |  | 
7 | O=C(N[C@@H]1CC1c1ccc(Cl)cc1Cl)c1c(F)cccc1F (stereo partly shown) [Compound 67-016] | 179 to 182 °C | 96 | 81
8 | C[C@H]1C(c2ccc(Cl)cc2)[C@@H]1NC(=O)c1ccccc1C(F)(F)F (mixture of isomers) [Compound 68.008, N-[(1R,2R,3S)-2-(4-chlorophenyl)-3-methyl-cyclopropyl]-2-(trifluoromethyl)benzamide] | 167 to 169 °C |  | 
9 | O=C(N[C@@H]1C[C@@H]1c1ccc(F)cc1)c1ccccc1C(F)(F)F (relative stereo) [Compound 67-003, N-[cis-2-(4-Fluoro-Phenyl)-Cyclopropyl]-2-Trifluoromethyl-benzamide] | 140 to 142 °C and 139 to 140 °C |  | 

Reference: patent US9408392B2, “Compounds” (SYNGENTA PARTICIPATIONS AG, priority 2012, dated 2016)
